Results: US12263155B2, “Combinations of monoamine oxidase inhibitors and serotonin receptor agonists and their therapeutic use” (Remedi, Inc., priority 2022, dated 2025)
Like-named read-outs stand apart in the source and are kept apart here.

Experiments:
[1] = Phase 1 single dose escalation pharmacokinetics; conditions: for Clast / Cmax/Dose / Tlast / % AUCextrap / AUCinf/Dose / kel / AUC(0-t): mean; for Cmax / Tmax / concentration at 24 h / AUC(0-t) / AUC(0-inf) / CL/F / Vd/F / half-life: male, human, plasma, po
Description: Methods: The trial was a Phase 1, single center, double-blind, placebo-controlled, sequential group, acute dose escalation study of the safety and pharmacokinetics of seven (7) CX157 dose levels in healthy male volunteers. Each of the seven (7) dose groups consisted of six (6) subjects, with the exception of cohort 2 (CX157 10 mg or placebo) which enrolled only five (5) subjects. Within each dose group, four (4) subjects were randomized to CX157 and two (2) subjects to placebo. Subjects were normal healthy volunteers confined to the study center for approximately 4 days, beginning approximately 16 hours before exposure to study drug and ending approximately 48 hours after exposure to study drug. Safety and tolerability was assessed for each dose group by the Principal Investigator before advancing to the next scheduled dose group. CX157 was administered as a fully solubilized microemulsion in Labrasol™
Plasma samples for the pharmacokinetic analysis of CX157 were obtained at predose (30 minutes prior to dosing), 10, 20, 30, 60 and 90 minutes, 2, 4, 8, 12, 16, 24, 36 and 48 hours after dosing. […] FIG. 11 details the plasma concentrations of CX157 (in ng/mL) of subjects for each of the seven dose groups, wherein the dosage amounts of CX157 administered to the subjects were 5 mg, 10 mg, 15 mg, 20 mg, 40 mg, 80 mg, and 120 mg.
Formulation: Each natural/transparent Licaps® size 0 hard gelatin capsule contains 5 mg or 10 mg CX157 in Labrasol™; each capsule is banded with a green gelatin band that is comprised of gelatin NF and polysorbate-80 NF. CX157 Liquid Filled Capsules are packaged in white, opaque, high density polyethylene (HDPE) bottles with screw-top polypropylene child resistant caps. Each bottle contains 30 capsules per bottle. CX157 Liquid Filled Capsules, 5 mg and 10 mg are stored long-term at controlled room temperature conditions [i15° C. to 30° C. (59° F. to 86° F.)].

[2] = Phase I modified release tablets BID pharmacokinetics; assay type: in vivo, human; conditions: for Cmax / AUC / concentration at 7 day: human, plasma, oral, 125 mg
Description: Methods: A total of 20 Subjects (16 on CX157 and 4 on placebo) were dosed with CX157 Modified Release Tablets, 125 mg BID (total daily dose of 250 mg) or placebo in Period 1 for 7 days. […] Subjects who were randomized to CX157 125 mg BID in Period 1 received CX157 175 mg BID in Period 2, after a washout of 7 days. Subjects randomized to placebo in Period 1 received placebo in Period 2, after a washout of 7 days. Blood samples for PK analysis were collected during both periods of the study.
Each oval, biconvex CX157 Film Coated Tablet, 125 mg has a white opaque film coating (Advantia™ Prime) and is stored long-term at controlled room temperature conditions [25° C. (77° F.); excursions 15-30° C. (59-86° F.)].
Each CX157 Modified Release Tablet, 175 mg is stored long-term at controlled room temperature conditions [25° C. (77° F.), excursions 15-30° C. (59-86° F.)]; the tablets are a modified caplet shape, pale pink in color, and plain on both sides.

[3] = healthy males, single oral 5 mg
[4] = healthy males, single oral 10 mg
[5] = healthy males, single oral 15 mg
[6] = healthy males, single oral 20 mg
[7] = healthy males, single oral 40 mg
[8] = healthy males, single oral 80 mg

`O=S1(=O)c2ccc(F)cc2Oc2cc(OCC(F)(F)F)ccc21` [CX157, 3-fluoro-7(2,2,2-trifluorethoxy)phenoxathiine-10,10-dioxide] gave a Clast [1, 3] of 0.15 ng/mL, a Cmax/Dose [1, 3] of 87 and a Tlast [1, 3] of 17 h. For the same compound, the “% AUCextrap” value [1, 4] was 6.2%, the AUCinf/Dose [1, 4] was 906 and the Clast [1, 4] was 0.2 ng/mL. For the same compound, the Cmax/Dose [1, 4] was 182, the Tlast [1, 4] was 40 h and the kel [1, 4] was 0.0371 h⁻¹. For the same compound, the “% AUCextrap” value [1, 5] was 5%, the AUCinf/Dose [1, 5] was 673 and the Clast [1, 5] was 0.38 ng/mL. It also gave a Cmax/Dose [1, 5] of 212, a Tlast [1, 5] of 45 h and a kel [1, 5] of 0.0529 h⁻¹. For the same compound, the “% AUCextrap” value [1, 6] was 3.1%, the AUCinf/Dose [1, 6] was 701 and the Clast [1, 6] was 0.24 ng/mL. It also gave a Cmax/Dose [1, 6] of 251, a Tlast [1, 6] of 48 h and a kel [1, 6] of 0.0488 h⁻¹. For the same compound, the “% AUCextrap” value [1, 7] was 3.3%, the AUCinf/Dose [1, 7] was 619 and the Clast [1, 7] was 0.48 ng/mL. It also gave a Cmax/Dose [1, 7] of 234, a Tlast [1, 7] of 48 h and a kel [1, 7] of 0.0459 h⁻¹. For the same compound, the “% AUCextrap” value [1, 8] was 5.2%, the AUCinf/Dose [1, 8] was 720 and the Clast [1, 8] was 1.9 ng/mL. The Cmax/Dose [1, 8] was 232, the Tlast [1, 8] was 48 h and the kel [1, 8] was 0.0456 h⁻¹. The Cmax ([1]; 5 mg) was 5.8 ng/mL, the Tmax ([1]; 5 mg) was 0.75 h and the concentration at 24 h ([1]; 5 mg) was 0.14 ng/mL. The AUC(0-t) ([1]; 5 mg, AUC0-24, healthy males, single oral 5 mg) was 0.0216 µg·h/mL, the AUC(0-t) ([1]; 5 mg, AUClast, healthy males, single oral 5 mg) was 0.0165 µg·h/mL and the AUC(0-inf) ([1]; 10 mg) was 0.102 µg·h/mL. It also gave a CL/F ([1]; 10 mg) of 1.18 L/h/kg, a Cmax ([1]; 10 mg) of 20.8 ng/mL and a Tmax ([1]; 10 mg) of 1.17 h. The Vd/F ([1]; 10 mg) was 33.3 L/kg, the concentration at 24 h ([1]; 10 mg) was 0.37 ng/mL and the half-life ([1]; 10 mg) was 18.9 h. The AUC(0-t) ([1]; 10 mg, AUC0-24, healthy males, single oral 10 mg) was 0.063 µg·h/mL, the AUC(0-t) ([1]; 10 mg, AUC0-48, healthy males, single oral 10 mg) was 0.096 µg·h/mL and the AUC(0-t) ([1]; 10 mg, AUClast, healthy males, single oral 10 mg) was 0.069 µg·h/mL. The AUC(0-inf) ([1]; 15 mg) was 0.129 µg·h/mL, the CL/F ([1]; 15 mg) was 1.81 L/h/kg and the Cmax ([1]; 15 mg) was 42.2 ng/mL. The Tmax ([1]; 15 mg) was 0.88 h, the Vd/F ([1]; 15 mg) was 33.7 L/kg and the concentration at 24 h ([1]; 15 mg) was 1 ng/mL. It also gave a half-life ([1]; 15 mg) of 13.3 h, an AUC(0-t) ([1]; 15 mg, AUC0-24, healthy males, single oral 15 mg) of 0.107 µg·h/mL and an AUC(0-t) ([1]; 15 mg, AUC0-48, healthy males, single oral 15 mg) of 0.129 µg·h/mL. For the same compound, the AUC(0-t) ([1]; 15 mg, AUClast, healthy males, single oral 15 mg) was 0.122 µg·h/mL, the AUC(0-inf) ([1]; 20 mg) was 0.154 µg·h/mL and the CL/F ([1]; 20 mg) was 1.59 L/h/kg. The Cmax ([1]; 20 mg) was 56.1 ng/mL, the Tmax ([1]; 20 mg) was 0.75 h and the Vd/F ([1]; 20 mg) was 32.9 L/kg. It also gave a concentration at 24 h ([1]; 20 mg) of 0.74 ng/mL, a half-life ([1]; 20 mg) of 14.4 h and an AUC(0-t) ([1]; 20 mg, AUC0-24, healthy males, single oral 20 mg) of 0.139 µg·h/mL. For the same compound, the AUC(0-t) ([1]; 20 mg, AUC0-48, healthy males, single oral 20 mg) was 0.149 µg·h/mL, the AUC(0-t) ([1]; 20 mg, AUClast, healthy males, single oral 20 mg) was 0.149 µg·h/mL and the AUC(0-inf) ([1]; 40 mg) was 0.321 µg·h/mL. The CL/F ([1]; 40 mg) was 1.79 L/h/kg, the Cmax ([1]; 40 mg) was 123 ng/mL and the Tmax ([1]; 40 mg) was 0.83 h. It also gave a Vd/F ([1]; 40 mg) of 38.1 L/kg, a concentration at 24 h ([1]; 40 mg) of 1.4 ng/mL and a half-life ([1]; 40 mg) of 15.6 h. The AUC(0-t) ([1]; 40 mg, AUC0-24, healthy males, single oral 40 mg) was 0.291 µg·h/mL, the AUC(0-t) ([1]; 40 mg, AUC0-48, healthy males, single oral 40 mg) was 0.309 µg·h/mL and the AUC(0-t) ([1]; 40 mg, AUClast, healthy males, single oral 40 mg) was 0.309 µg·h/mL. For the same compound, the AUC(0-inf) ([1]; 80 mg) was 0.772 µg·h/mL, the CL/F ([1]; 80 mg) was 1.52 L/h/kg and the Cmax ([1]; 80 mg) was 245 ng/mL. It also gave a Tmax ([1]; 80 mg) of 1 h, a Vd/F ([1]; 80 mg) of 33.5 L/kg and a concentration at 24 h ([1]; 80 mg) of 5.5 ng/mL. For the same compound, the half-life ([1]; 80 mg) was 15.3 h, the AUC(0-t) ([1]; 80 mg, AUC0-24, healthy males, single oral 80 mg) was 0.647 µg·h/mL and the AUC(0-t) ([1]; 80 mg, AUC0-48, healthy males, single oral 80 mg) was 0.73 µg·h/mL. The AUC(0-t) ([1]; 80 mg, AUClast, healthy males, single oral 80 mg) was 0.73 µg·h/mL, the “fluctuation in CX157 concentrations during each 12-h dosing interval at steady state” value ([2]; 125 mg BID, Day 7) was 4.6 fold and the “accumulation, Day 7 versus Day 1 exposures” value ([2]; BID dosing with 125 mg MR tablets) was 2.6 fold. It also gave a Cmax ([2]; 125 mg BID, Day 1, read-out: mean Cmax) of 134 ± 103 ng/mL, an AUC ([2]; 12-hour AUC, 125 mg BID, Day 1) of 0.702 ± 0.5 µg·h/mL and an AUC ([2]; MR tablets 125 mg BID, Day 7, mean, read-out: AUCSS) of 1.28 ± 0.651 µg·h/mL. It also gave a concentration at 7 day ([2]; MR tablets 125 mg BID, Day 7, mean, read-out: CSS) of 107 ± 54 ng/mL, a Cmax ([2]; MR tablets 125 mg BID, Day 7, mean, read-out: Cmax) of 231 ± 114 ng/mL and a concentration at 7 day ([2]; MR tablets 125 mg BID, Day 7, mean, read-out: Cmin) of 54.9 ± 32 ng/mL.
